{"source": "patent US20110200685A1", "about": "“Methods and compositions for the reduction of pathogenic microorganisms from meat and poultry carcasses, trim and offal” (priority 2010, published 2011)", "key": {"[1]": {"assay": "Relative stability (decay) of HOBr from NaOCl-activated HBr vs DBDMH, 600 ppm as bromine (Example 4)", "type": "physicochemical", "settings": "HOBr 600 ppm as bromine; stored in the dark; 70-75° F.", "experimental": "The relative stability of HOBr derived from NaOCl-activated HBr and HOBr derived from DBDMH was compared side-by-side. A solution of HOBr (600 ppm as bromine) was used in the comparison because this is the amount of bromine that typically exits the commercial DBDMH feeders when the solid product is dissolved. The activity of the solutions was measured using the DPD Total chlorine colorimetric method. Solutions were stored in the dark to prevent photodegradation due to UV light exposure. The temperature ranged from 70-75° F. for the duration of the test.\nThe HOBr decay profiles for the 600 ppm (as bromine) solutions derived from NaOCl-activated HBr solution and DBDMH solution are plotted in FIG. 2.\nGraphs of ln(Co/Ct) where Co is the initial concentration of HOBr and Ct is the concentration at day t were close to straight lines for both the DBDMH and NaOCl-activated HBr derived solutions. (the regression analysis correlation coefficient, R^2 values were close to 1). The R^2 value for the DBDMH and the NaOCl-activated HBr solutions were 0.9251 and 0.9302, respectively. […]\nThe half-lives of HOBr from the HBr-activated solution and the DBDMH solution were calculated by […]—the natural logarithm (ln) of 2."}, "[2]": {"assay": "Octanol-Water Partition Coefficient of HOBr (Example 13)", "type": "physicochemical", "experimental": "In order to quantify the lipophilicity of HOBr solutions prepared from NaOCl-activated HBr, the Octanol-Water Partition Coefficient was determined.\nThe Octanol-Water Partition Coefficient is defined as:\nPow=Octanol-Water Partition Coefficient. Commonly the logarithm of this number is reported as Log Pow\nA high concentration of a HOBr solution was prepared by introducing sufficient NaOCl to activate 3.34 ml 48% HBr in 900 ml RO water until the pH was 7.23. By iodometric titration, the solution was determined to contain 5625 ppm as Br2. The slightly yellow activated solution (25 ml) was poured into an Erlenmeyer flask containing octanol (25 ml). This was mixed for two minutes using a high-speed magnetic stirrer after which the two phases were allowed to separate. All of the yellow color had phase-separated into the top octanol layer. […] The Pow was calculated to be 1.97. This was repeated for lower concentrations of HOBr by preparing a stock solution of 300 ppm as Br2 using 0.2 ml 48% HBr in 900 ml RO water and adding sufficient NaOCl bleach until the pH was 7.33. From the 300 ppm as Br2 stock solution, solutions of 200 and 100 ppm as Br2 were prepared.\nA saturated solution of DBDMH was prepared by slurrying DBDMH (1 g) powder in RO water (99 g) and stirring rapidly for 20 minutes. Undissolved solids were removed by gravity filtration. By iodometric titration, the solution was determined to contain 1170 ppm as Br2. The DBDMH solution (25 ml) was poured into an Erlenmeyer flask containing octanol (25 ml). This was mixed for two minutes using a high-speed magnetic stirrer after which the two phases were allowed to separate. […] The Pow was calculated to be 0.808. The 1170 ppm as Br2 stock solution was then used to prepare solution of 300, 200 and 100 ppm as Br2 solutions."}, "[3]": {"tested_on": "E. coli O157:H7", "assay": "Surface-associated bacteria remaining on beef and pork after 30 second spray (Example 9)", "type": "cell-based", "settings": "for log10 (remaining): 30 second spray 50 psi, DBDMH 288 ppm Br2, NaOCl/HBr 279 ppm Br2; for % reduction / log10 reduction: vs city water control", "description": "(§1) The microbiological efficacy of the HOBr derived from NaOCl/HBr and the HOBr from DBDMH were compared against a culture of E. coli O157:H7 bacteria that was sprayed onto the surface of beef and pork meat.\n(§2) Meat processing facilities commonly treat beef and pork with antimicrobial solutions for about 30 seconds by spraying the beef and pork carcasses and trim with the solution in a spray cabinet. To simulate this process, a small spray cabinet was constructed for the study. A 30-gallon, open-headed drum was equipped with three ½ inch PVC section of pipe that were vertically oriented and positioned 120 degrees apart. Each section of pipe had two spay nozzles four inches apart positioned to form a spray zone in the center of the drum. An air-assisted diaphragm pump was used to deliver the test solution into the three ½ inch PVC pipe sections and through the nozzles. A regulator on the air pump was used to adjust the pressure of the spray as necessary.\n(§3) A stock solution of a field strain of E. coli O157:H7 was incubated at 35° C. for four days in Sigma Nutrient Broth for microbial culture. Three daily, consecutive transfers of the inoculums were made to ensure that a sufficient concentration of E. coli O157:H7 was available for the study. The broth and bacteria mixture was then centrifuged leaving the E. coli O157:H7 to be re-suspended in approximately 500 ml Butterfield's Buffer. The E. coli O157:H7 buffer solution was serially diluted and plated on 3M Petrifilm E. coli plates, incubated at 35° C. for 48 hours where it was determined that the E. coli O157:H7 population was 6.76×10^7 CFU/ml or log10 7.83.\nThe type of beef used was chuck roast, which was cut into nine equal pieces. The average weight of beef piece used in this portion of the study was 257.1 g. Nine boneless pork chops of average weight of pork 142.9 g were used.\n(§4) In summary: • Beef— • a) Control: Three beef pieces—city water • b) DBDMH: Three beef pieces—288 ppm Br2 • c) NaOCl/HBr: Three beef pieces—279 ppm Br2 • Pork— • a) Control: Three pork pieces—city water • b) DBDMH: Three pork pieces—288 ppm Br2 • c) NaOCl/HBr: Three pork pieces—279 ppm Br2\n(§5) During the 30 second spray, a piece of meat was held by a hook and moved up and down in the spray zone of the spray cabinet with rotation to ensure even distribution of the solution over the surface. The spray pressure was set at 50 psi.\nAfter spraying, each meat piece was gently shaken three times to remove excess liquid and returned to a new, sterile bag containing 200 g of city water. The bag was sealed and then vigorously agitated manually for one minute to dislodge any viable surface-associated bacteria from the meat and into the aqueous phase. The water was then plated using 3M Petrifilm E. coli plates and incubated at 35° C. for 48 hours, after which the plates were enumerated. All plating for E. coli was performed within five minutes of completing the spray."}, "[4]": {"tested_on": "Salmonella typhimurium (ATCC 14028)", "assay": "Surface-associated bacteria remaining on chicken after 40 minute chilled immersion (Example 11)", "type": "cell-based", "settings": "chicken halves", "experimental": "Most poultry processing facilities cool the product by submerging it for 30-60 minutes in a chiller tank containing an antimicrobial chemical. The chilled water solution is typically around 35° F. (Food Contact Notification, nos. 334 and 453). Therefore, the microbiological efficacy of the HOBr derived from NaOCl-activated HBr and the HOBr from DBDMH were compared by immersing chickens inoculated with a culture of Salmonella typhimurium (ATCC 14028) bacteria. An inoculum was prepared in the same manner as described in Example 10. This time the inoculum yielded a Salmonella typhimurium population of 3.78×10^8 CFU/ml, or log10 8.58. This was then sprayed onto both sides of the chicken halves and left to marinate for two hours. The average weight of the whole chicken used in this portion of the study was 5.20 lbs.\nEach test solution was made with chilled water immediately prior to use. For each test solution and the control, two chicken halves were placed in a plastic storage bin containing one quart of test solution. A sterilized ice pack was placed in the bin to accompany the chicken and maintain water temperature. The chicken halves were allowed to sit in the chilled solution for 40 minutes at 35° F., and were turned every five minutes while gently agitating the storage bin. All containers were covered using aluminum foil to prevent degradation of the active ingredients by UV light.\nIn summary: • a) Control: Two chicken halves—city water • b) DBDMH: Two chicken halves—95 ppm as total bromine • c) NaOCl/HBr: Two chicken halves—100 ppm as total bromine\nAfter spraying, each chicken half was gently shaken three times to remove excess liquid and returned to a new, sterile bag. 300 g of city water was introduced to the bag and the bag was tumbled vigorously for one minute to dislodge viable surface-associated Salmonella bacteria. The water left at the bottom of the bag was plated using 3M Petrifilm Enterobacteriaceae Plates and incubated at 35° C. for 24 hours, upon which the plates were enumerated."}, "[5]": {"tested_on": "Salmonella typhimurium (ATCC 14028)", "assay": "Surface-associated bacteria remaining on chicken after 30 second spray (Example 10)", "type": "cell-based", "settings": "chicken halves", "description": "In the processing of poultry, birds that are deemed by the USDA inspectors to have undesirable levels of fecal contamination are directed to a dedicated cabinet where they are sprayed with an antimicrobial solution. If the fecal contamination were not removed, birds harboring the pathogenic Salmonella organism would enter the human food chain. Therefore, the microbiological efficacy of the HOBr derived from NaOCl/HBr and the HOBr from DBDMH were compared on chicken inoculated with a culture of Salmonella typhimurium (ATCC 14028) bacteria.\nA stock solution of Salmonella typhimurium (ATCC 14028) was incubated at 35° C. for four days in Sigma Nutrient Broth for microbial culture. Three daily, consecutive transfers of the inoculums were made to ensure that a sufficient concentration of Salmonella typhimurium was available for the study. The broth and bacteria mixture was then centrifuged leaving the Salmonella typhimurium to be re-suspended in approximately 500 ml Butterfield's Buffer. The Salmonella buffer solution was serially diluted and plated on 3M Petrifilm Enterobacteriaceae Plates, incubated at 35° C. for 24 hours where it was determined that the Salmonella typhimurium population was 2.34×10^8 or log10 8.37 CFU/ml (colony forming units per milliliter).\nThree whole, uncooked chickens were purchased from a local grocer. The average weight of the whole chickens was 5.30 pounds. The organs were removed from each chicken and subsequently, each chicken was cut evenly in half down the back leaving six equal halves which contained a back, breast, thigh and leg. The chicken halves were then patted dry with a paper towel, sprayed liberally on all sides and marinated with Salmonella typhimurium—Butterfield's Buffer solution inoculums for two hours, turning occasionally.\nThe six chicken pieces were introduced to the spray cabinet used in Example 9. […] The concentration of HOBr was measured prior to spraying the meat pieces by using a HACH DR/700 Colorimeter and HACH 10 ml DPD Total Chlorine pillow packets. […]"}, "[6]": {"tested_on": "E. coli O157:H7", "assay": "Microbiological quality of wash water after spraying inoculated beef and pork (Example 9)", "type": "cell-based", "settings": "for log10 (remaining): 30 second spray 50 psi; for log10 reduction: vs city water control", "description": "as §1, §2, §3, §4, §5\nImmediately after each piece was sprayed, a sample of the wash solution was taken from the bottom of the spray cabinet drum for microbial analysis. The solutions were plated on 3M Petrifilm E. coli plates and incubated at 35° C. for 48 hours."}, "[7]": {"settings": "Concentration HOBr (as Br2) 100"}, "[8]": {"settings": "Concentration HOBr (as Br2) 200"}, "[9]": {"settings": "Concentration HOBr (as Br2) 300"}, "[10]": {"settings": "Concentration HOBr (as Br2) 1170 (saturated solution)"}, "[11]": {"settings": "immersion 40 minutes, vs city water control"}, "[12]": {"settings": "30 second spray, vs city water control"}}, "note": "Values joined by “and” are separate entries in the source; they are usually repeats but may differ in a detail not shown here. Identical values can stand only once."}
{"molecule": "CC1(C)C(=O)N(Br)C(=O)N1Br", "note": "[DBDMH, 1,3-dibromo-5,5-dimethylhydantoin]", "values": [{"measurement": "rate constant of HOBr decay", "setting": "[1]", "value": 0.051, "unit": "day⁻¹"}, {"measurement": "Concentration in aqueous phase after partitioning into octanol", "setting": "[2]; [7]", "value": 19.125, "unit": "ppm as Br2"}, {"measurement": "Pow HOBr", "setting": "[2]; [7]", "value": 0.645}, {"measurement": "Concentration in aqueous phase after partitioning into octanol", "setting": "[2]; [8]", "value": 34.99, "unit": "ppm as Br2"}, {"measurement": "Pow HOBr", "setting": "[2]; [8]", "value": 0.719}, {"measurement": "Concentration in aqueous phase after partitioning into octanol", "setting": "[2]; [9]", "value": 50.74, "unit": "ppm as Br2"}, {"measurement": "Pow HOBr", "setting": "[2]; [9]", "value": 0.731}, {"measurement": "Concentration in aqueous phase after partitioning into octanol", "setting": "[2]; [10]", "value": "159.7 ppm as Br2 and 157.5 ppm as Br2"}, {"measurement": "Pow HOBr", "setting": "[2]; [10]", "value": 0.808}, {"measurement": "log10 (remaining)", "setting": "[3]; on beef, control 6.15", "value": 5.56, "unit": "log10"}, {"measurement": "% reduction", "setting": "[3]; on beef", "value": 74.30, "unit": "%"}, {"measurement": "log10 reduction", "setting": "[3]; on beef", "value": 0.59, "unit": "log10"}, {"measurement": "log10 (remaining)", "setting": "[3]; on pork, control 6.43", "value": 5.71, "unit": "log10"}, {"measurement": "% reduction", "setting": "[3]; on pork", "value": 80.95, "unit": "%"}, {"measurement": "log10 reduction", "setting": "[3]; on pork", "value": 0.72, "unit": "log10"}, {"measurement": "log10 (remaining)", "setting": "[4]; immersion 40 minutes at 35° F., DBDMH 95 ppm, NaOCl/HBr 100 ppm as total bromine, control 6.54", "value": 6.25, "unit": "log10 CFU/ml"}, {"measurement": "% reduction", "setting": "[4]; [11]", "value": 48.71, "unit": "%"}, {"measurement": "log10 reduction", "setting": "[4]; [11]", "value": 0.29, "unit": "log10 CFU/ml"}, {"measurement": "log10 (remaining)", "setting": "[5]; 30 second spray 40 psi, DBDMH 295 ppm, NaOCl/HBr 275 ppm as total bromine, control 6.15", "value": 5.85, "unit": "log10 CFU/ml"}, {"measurement": "% reduction", "setting": "[5]; [12]", "value": 49.88, "unit": "%"}, {"measurement": "log10 reduction", "setting": "[5]; [12]", "value": 0.30, "unit": "log10 CFU/ml"}, {"measurement": "log10 (remaining)", "setting": "[6]; beef, DBDMH 288 ppm Br2, NaOCl/HBr 279 ppm Br2, control 5.01", "value": 0.48, "unit": "log10"}, {"measurement": "log10 reduction", "setting": "[6]; beef", "value": 4.53, "unit": "log10"}, {"measurement": "log10 (remaining)", "setting": "[6]; pork, DBDMH 288 ppm Br2, NaOCl/HBr 279 ppm Br2, control 5.18", "value": 0.99, "unit": "log10"}, {"measurement": "log10 reduction", "setting": "[6]; pork", "value": 4.19, "unit": "log10"}]}
